# Data from article PMC12519464, “Dual-Site Inhibition of SARS-CoV‑2 RNA-Dependent RNA Polymerase by Small Molecules Able to Block Viral Replication Identified through a Computer-Aided Drug Discovery Approach” (ACS Infectious Diseases, 2025).
# Target: SARS-CoV-2 nsp12/7/8 (RTC) complex (Severe acute respiratory syndrome coronavirus 2, UniProt P0DTD1)
# Assay: biochemical
# Format: biochemical
# Details: not given
row,Structure (SMILES),IC50 [µM]
1,"Oc1cccc(-c2c3nc(c(-c4cccc(O)c4)c4ccc([nH]4)c(-c4cccc(O)c4)c4nc(c(-c5cccc(O)c5)c5ccc2[nH]5)CC4)C=C3)c1 [Temoporfin, reference compound]",> 100
2,"CC(=O)c1nn(CC(=O)N2C[C@H](F)C[C@H]2C(=O)Nc2cccc(Br)n2)c2ccc(-c3cnc(C)nc3)cc12 [Danicopan, reference compound]",> 100
3,CC(C)(O)/C=C/C(=O)[C@](C)(O)[C@H]1[C@H](O)C[C@@]2(C)[C@@H]3CC=C4[C@@H](C[C@H](O)C(=O)C4(C)C)[C@]3(C)C(=O)C[C@]12C [Cucurbitacin D],> 100
4,CC(C)=CC/C=C(\C)[C@H]1CC[C@]2(C)[C@@H]1[C@H](O)C[C@@H]1[C@@]3(C)CC[C@H](O[C@@H]4O[C@H](CO)[C@@H](O)[C@H](O)[C@H]4O[C@@H]4O[C@H](CO)[C@@H](O)[C@H](O)[C@H]4O)C(C)(C)[C@@H]3CC[C@]12C [Ginsenoside Rg5],> 100
5,"C[C@H]1[C@H](C)CC[C@]2(C(=O)O)CC[C@]3(C)C(=CC[C@@H]4[C@@]5(C)CC[C@H](O)C(C)(C)[C@@H]5CC[C@]43C)[C@H]12 [Ursolic acid, reference compound]",> 100
6,CC1(C)CC[C@]2(C(=O)O)CC[C@]3(C)C(=CC[C@@H]4[C@@]5(C)C[C@@H](O)[C@H](O)C(C)(C)[C@@H]5CC[C@]43C)[C@@H]2C1 [Maslinic Acid],> 100
7,"C[C@]12C=CC(=O)N[C@@H]1CC[C@@H]1[C@@H]2CC[C@]2(C)[C@@H](C(=O)Nc3cc(C(F)(F)F)ccc3C(F)(F)F)CC[C@@H]12 [Dutasteride, reference compound]",> 100
8,C=C(C)[C@@H]1CC[C@]2(C)CC[C@]3(C)[C@H](CC[C@@H]4[C@@]5(C)CCC(=O)C(C)(C)[C@@H]5CC[C@]43C)[C@@H]12 [Lupenone],> 100
9,"C[C@]1(O)C[C@@H](c2nc(-c3ccc4ccc(-c5ccccc5)nc4c3)c3c(N)nccn32)C1 [Linsitinib, reference compound]",> 100
10,CC1(C)CC[C@]2(C(=O)O)[C@H](O)C[C@]3(C)C(=CC[C@@H]4[C@@]5(C)CC[C@H](O)[C@@](C)(C=O)[C@@H]5CC[C@]43C)[C@@H]2C1 [Quillaic acid],83.9 ± 9.31
11,"CC(C)Oc1ccc(-c2nn([C@@H](C)c3oc4ccc(F)cc4c(=O)c3-c3cccc(F)c3)c3ncnc(N)c23)cc1F [Umbralisib, reference compound]",> 100
12,C[C@@H]1O[C@@H](O[C@H]2CC[C@]3(C=O)[C@H]4CC[C@]5(C)[C@@H](c6ccc(=O)oc6)CC[C@]5(O)[C@@H]4CC[C@]3(O)C2)[C@H](O)[C@H](O)[C@H]1O[C@@H]1O[C@H](CO)[C@@H](O)[C@H](O)[C@H]1O [Hellebrin],> 100
13,"C[C@H]1[C@H](C)CC[C@]2(C(=O)O)CC[C@]3(C)C(=CC[C@@H]4[C@@]5(C)C[C@@H](O)[C@H](O)C(C)(C)[C@@H]5CC[C@]43C)[C@H]12 [Corosolic acid, reference compound]",> 100
14,C=C(C)[C@@H]1CC[C@]2(C)CC[C@]3(C)[C@H](CC[C@@H]4[C@@]5(C)CC[C@H](O)C(C)(C)[C@@H]5CC[C@]43C)[C@@H]12 [Lupeol],> 100

# Same assay, conditions: primer-extension PAGE assay, 150 nM RTC, 5% DMSO, 30 min preincubation at 37 °C; mean and SD of at least 3 independent experiments
row,Structure (SMILES),IC50 [µM]
1,"C=CC(=O)N1CCN(c2nc(=O)n(-c3c(C)ccnc3C(C)C)c3nc(-c4c(O)cccc4F)c(F)cc23)[C@@H](C)C1 [Sotorasib, reference compound]",47 ± 10.6
2,"C[C@H](NC(=O)c1c(N)nn2cccnc12)c1cc2cccc(C#Cc3cnn(C)c3)c2c(=O)n1-c1ccccc1 [Eganelisib, reference compound]",> 100
3,"C[C@H]1CN(C2COC2)CCN1c1ccc(Nc2cc(-c3ccnc(N4CCn5c(cc6c5CC(C)(C)C6)C4=O)c3CO)cn(C)c2=O)nc1 [Fenebrutinib, reference compound]",> 100
4,"O=C(Nc1nc(-c2cc(Cl)cs2)c(N2CCN(C3CCCCC3)CC2)s1)c1cnc(N2CCC(C(=O)O)CC2)c(Cl)c1 [Avatrombopag, reference compound]",27.2 ± 7.35
5,"Cc1ccc(C(=O)NNC(=O)c2c(C)cccc2Cl)cc1C#Cc1cnc2ccccc2c1 [Vodobatinib, reference compound]",> 100
6,"COc1cccc(OC)c1-c1cc(C(=O)NC2(C(=O)O)C3CC4CC(C3)CC2C4)nn1-c1ccnc2cc(Cl)ccc12 (centres unmarked) [Meclinertant, reference compound]",15.4 ± 2.77
7,C[C@@H]1CC[C@@]2(OC1)O[C@H]1C[C@H]3[C@@H]4CC=C5C[C@@H](O[C@@H]6O[C@H](CO)[C@@H](O)[C@H](O)[C@H]6O)CC[C@]5(C)[C@H]4CC[C@]3(C)[C@H]1[C@@H]2C [Disogluside],> 100

# Same assay, conditions: read-out: IC50: compound concentration required to inhibit by 50% the SARS-CoV-2 RTC enzymatic activity
row,Structure (SMILES),IC50 [µM]
1,"CC(C)(O)CC[C@H]1OC(C)(C)O[C@]1(C)[C@H]1CC[C@@]2(O)C3=CC(=O)[C@@H]4C[C@H]5OC(C)(C)O[C@H]5C[C@]4(C)[C@H]3CC[C@]12C [Ecdysterone 2,3:20,22-diacetonide]",> 100
2,"Cc1oc2c(C)c3oc(=O)c(CC(=O)N4C[C@H]5C[C@@H](C4)c4cccc(=O)n4C5)c(C)c3cc2c1-c1ccccc1 [(1S,9R)-11-[2-(2,5,9-trimethyl-7-oxo-3-phenylfuro[3,2-g]chromen-6-yl)acetyl]-7,11-diazatricyclo[7.3.1.02,7]trideca-2,4-dien-6-one]",28.3 ± 6.24
3,CC(C)=CCC[C@](C)(O)[C@H]1CC[C@]2(C)[C@@H]1[C@H](O)C[C@@H]1[C@@]3(C)CC[C@H](O)C(C)(C)[C@@H]3CC[C@]12C [(20S)-Protopanaxadiol],> 100
4,CC1(C)CC[C@]2(C(=O)O)CC[C@]3(C)C(=CC[C@@H]4[C@@]5(C)CC[C@H](O[C@@H]6O[C@H](C(=O)O)[C@@H](O[C@@H]7O[C@@H](CO)[C@H](O)[C@H]7O)[C@H](O)[C@H]6O)C(C)(C)[C@@H]5CC[C@]43C)[C@@H]2C1 [Narcissiflorine],17.2 ± 5.96
5,"C[C@@H]1CC[C@@]2(OC1)O[C@H]1C[C@H]3[C@@H]4CC[C@@H]5C[C@@H](O)CC[C@]5(C)[C@H]4CC[C@]3(C)[C@H]1[C@@H]2C [Smilagenin, reference compound]",> 100
6,O=C(COc1ccc2c(-c3ccccc3)cc(=O)oc2c1)Nc1ccc(OCc2ccccc2)cc1 [2-(2-oxo-4-phenylchromen-7-yl)oxy-N-(4-phenylmethoxyphenyl)acetamide],80.5 ± 6.24
7,CC(C)=CCC[C@@](C)(O)[C@H]1CC[C@]2(C)[C@@H]1[C@H](O)C[C@@H]1[C@@]3(C)CC[C@H](O)C(C)(C)[C@@H]3CC[C@]12C [(20R)-Protopanaxadiol],> 100
8,"CC(C)(O)CC[C@H]1OC(C)(C)O[C@]1(C)[C@H]1CC[C@@]2(O)C3=CC(=O)[C@@H]4C[C@@H](O)[C@@H](O)C[C@]4(C)[C@H]3CC[C@]12C [20-Hydroxyecdysone 20,22-acetonide]",> 100
9,CC(C)(O)[C@@H]1CC[C@](C)([C@H]2[C@@H](O)C[C@@]3(C)[C@@H]4C[C@H](O)[C@H]5C(C)(C)[C@@H](O)CC[C@@]56C[C@@]46CC[C@]23C)O1 [Cycloastragenol],> 100
10,C=C(C)[C@@H]1CC[C@]2(C)CC[C@]3(C)[C@H](CC[C@@H]4[C@@]5(C)CC[C@H](OC(C)=O)C(C)(C)[C@@H]5CC[C@]43C)[C@@H]12 [Lupeol Acetate],> 100
11,CC(C)=CCCC(C(=O)O)C1CCC2(C)C3=C(CCC12C)C1(C)CCC(=O)C(C)(C)C1CC3 (centres unmarked) [3-Dehydrotrametenolic acid],> 100
12,CC1(C)CC[C@]2(C(=O)O)CCC3=C([C@@H](CCl)C[C@@H]4[C@@]5(C)C[C@H](O)[C@H](O)[C@@](C)(C(=O)O)[C@@H]5CC[C@@]34C)[C@@H]2C1 [Senegenin],> 100
13,"C/C(Nc1ccc(Oc2ccc(N/C(C)=C3\C(=O)C[C@@H]4[C@H]3C4(C)C)cc2)cc1)=C1/C(=O)C[C@@H]2[C@H]1C2(C)C [(1S,2Z,5R)-2-[1-[4-[4-[[(1Z)-1-[(1S,5R)-6,6-dimethyl-3-oxo-2-bicyclo[3.1.0]hexanylidene]ethyl]amino]phenoxy]anilino]ethylidene]-6,6-dimethylbicyclo[3.1.0]hexan-3-one]",> 100
14,"COc1ccc2cc(S(=O)(=O)N[C@H](CC(=O)N[C@H](Cc3ccc(CN4[C@H](C)CCC[C@@H]4C)cc3)C(=O)N(C)C(C)C)c3ccc4c(c3)OCO4)ccc2c1 [SSR240612, reference compound]",85.9 ± 4.35
15,CC1(C)[C@@H](O)CC[C@]2(C)[C@H]3CC=C4[C@@H]5C[C@@]6(C)C[C@H](OC6=O)[C@]5(C)CC[C@@]4(C)[C@]3(C)CC[C@@H]12 [Wilforlide A],> 100
16,CC(C)=CCc1c(O)ccc(C(=O)[C@@H]2[C@@H](c3c(O)cc(O)c4c(=O)c(CC=C(C)C)c(-c5ccc(O)cc5O)oc34)C=C(C)C[C@H]2c2ccc(O)cc2O)c1O [Kuwanon H],66.2 ± 1.81
17,C[C@@H]1CC[C@]2(C(=O)O)CC[C@]3(C)C(=CC[C@@H]4[C@@]5(C)C[C@@H](O)[C@H](O)C(C)(C)[C@@H]5CC[C@]43C)[C@@H]2[C@]1(C)O [Tormentic acid],> 100
18,"Cc1cc2c(C(C)C)c(O)c(O)c(C=NCc3ccncc3)c2c(O)c1-c1c(C)cc2c(C(C)C)c(O)c(O)c(C=NCc3ccncc3)c2c1O [3-methyl-5-propan-2-yl-8-(pyridin-4-ylmethyliminomethyl)-2-[1,6,7-trihydroxy-3-methyl-5-propan-2-yl-8-(pyridin-4-ylmethyliminomethyl)naphthalen-2-yl]naphthalene-1,6,7-triol]",16.1 ± 0.32
19,C[C@H]1[C@H](C)CC[C@]2(C(=O)O)CC[C@]3(C)C(=CC[C@@H]4[C@@]5(C)CC[C@H](O)C(C)(C)[C@@H]5CC[C@]43C)[C@H]12 [3-Epiursolic Acid],11.6 ± 3.97
20,"CO[C@H]1/C=C/O[C@@]2(C)Oc3c(C)c(O)c4c(c3C2=O)C(=O)C(N2CCCC2)=C(NC(=O)/C(C)=C\C=C\[C@H](C)[C@H](O)[C@@H](C)[C@H](O)[C@H](C)[C@H](O)[C@@H]1C)C4=O [(7S,9E,11S,12S,13S,14S,15S,16R,17S,18S,19E,21Z)-2,13,15,17-tetrahydroxy-11-methoxy-3,7,12,14,16,18,22-heptamethyl-26-pyrrolidin-1-yl-8,30-dioxa-24-azatetracyclo[23.3.1.14,7.05,28]triaconta-1(28),2,4,9,19,21,25-heptaene-6,23,27,29-tetrone]",46.1 ± 15.6
